Test results taken from patent US20260234651A1, “ACETYL-COA CARBOXYLASE INHIBITOR RESISTANT SORGHUM” (PIONEER HI-BRED INTERNATIONAL, INC., priority 2023, published 2026).

Tests used:
Assay type in all cases: in vivo, Sorghum bicolor
[1] = system: control plants without the W2032C ACCase edit; experiment: Field tolerance test, summary in words; conditions: all plants dead at 10-14 days post spray
Procedure: (§1) The ACCase edited plants generated in Example 1 were outcrossed with 3 male sterile lines in a controlled environment. The F1 plants which contain a single copy of the W2032C edit in the ACCase gene and the edited elite inbred line containing 2 copies of the W2032C ACCase (hereinafter referred to as […]) along with the non-edited elite inbred (wt control) and the 3 male sterile lines were tested in the field for efficacy. Four short rows, each row with ~100 seedlings, were planted for each variety in replicate. Once the plants reached the 5-6 leaves stage, replicate 1 for each variety was treated with a 1× dose of Assure II (Quizalofop-P-ethyl) and replicate 2 for each variety was treated with a 2× dose of Assure II (Quizalofop-P-ethyl). Plants were then scored for tolerance at 7- and 14-days post application. The plots were scored by giving a 1-9 score to each plot, with 1 being dead and 9 no visible response.

[2] = system: three F1 hybrids with a single copy of the W2032C ACCase edit; experiment: Field tolerance test, summary in words; conditions: 1x or 2x Assure II
Procedure: as §1

[3] = system: F1 Hybrid 1_W2032C (single copy of W2032C ACCase); experiment: Field tolerance test, Quizalofop-P-ethyl (Assure II) spray; conditions: 1 copy, 1-9 score, 1 dead, 9 no visible response
Procedure: as §1
(§2) The PH2545MW_W2032C was given score of 7 with 1× dose of Quizalofop-P-ethyl application (Table 4), as some twisting of the leaves due to herbicide injury was observed, however, after a week or so the twisting of the leaves may not be visible anymore because they were growing out of it, which may be indicated by the score change from 5 to 6 at day 7 and day 14 post 2× dose of Quizalofop-P-ethyl application.

[4] = system: elite inbred_WT (non-edited elite inbred, wt control); experiment: as above; conditions: 0 copies W2032C, 1-9 score, 1 dead, 9 no visible response
Procedure: as §1, §2

Male Sterile 3_WT = experiment: as above; conditions: 0 copies, 1-9 score, 1 dead, 9 no visible response
Procedure: as §1, §2

Male Sterile 2_WT = experiment: as above; conditions: 0 copies, 1-9 score, 1 dead, 9 no visible response
Procedure: as §1, §2

[5] = system: F1 Hybrid 2_W2032C (single copy of W2032C ACCase); experiment: as above; conditions: 1 copy, 1-9 score, 1 dead, 9 no visible response
Procedure: as §1, §2

[6] = system: F1 Hybrid 3_W2032C (single copy of W2032C ACCase); experiment: as above; conditions: 1 copy, 1-9 score, 1 dead, 9 no visible response
Procedure: as §1, §2

Male Sterile 1_WT = experiment: as above; conditions: 0 copies, 1-9 score, 1 dead, 9 no visible response
Procedure: as §1, §2

[7] = system: elite inbred_W2032C (2 copies of W2032C ACCase); experiment: as above; conditions: for 7-day Post Application Score / 14-day Post Application Score: elite inbred_W2032C, 2 copies
Procedure: as §1, §2

[8] = system: homozygous ACCase edited T1 plants; experiment: Spray test of T1 plants with quizalofop-p-ethyl; conditions: all 19 homozygous ACCase edited T1 plants, 8-leaf stage, 7 fl. ounce (0.034-0.083 lb ai)
Excerpt: (§3) ACCase edited T1 seeds were planted in flats, all seeds germinated and were heathy looking. Additionally, they were all able to produce T2 seeds with high seed count setting. Nineteen homozygous ACCase edited T1 plants at the 8-leaf stage were sprayed with quizalofop-p-ethyl at a rate of 7 fl. ounce (0.034-0.083 lb ai), which is the average dose from the Assure II label. […] A subset of the T1 plants after the spray test were kept to maturity and all produced T2 seeds with good seed setting. In contrast, the wild-type control plants were all susceptible to the quizalofop-p-ethyl spray and died.

wild-type control plants = experiment: Spray test of T1 plants with quizalofop-p-ethyl; conditions: 7 fl. ounce (0.034-0.083 lb ai), all died
Excerpt: as §3

[9] = 1x dose, 1-9 score, 1 dead, 9 no visible response
[10] = 2x dose, 1-9 score, 1 dead, 9 no visible response

CCOC(=O)[C@@H](C)Oc1ccc(Oc2cnc3cc(Cl)ccc3n2)cc1 [Quizalofop-P-ethyl]
resistance (tolerance): response of plants to the herbicide spray [8]
4: 14-day Post Application Score ([3]; 1x dose) | 7-day Post Application Score ([3]; 2x dose) | 14-day Post Application Score ([5]; 1x dose) | 14-day Post Application Score ([6]; 2x dose)
no tolerance: tolerance to the herbicide in the field [1]
6: 14-day Post Application Score [7, 10]
3: 14-day Post Application Score ([3]; 2x dose) | 7-day Post Application Score ([4]; 1x dose) | 7-day Post Application Score ([4]; 2x dose) | 7-day Post Application Score (Male Sterile 3_WT; 1x dose) | 14-day Post Application Score ([5]; 2x dose) | 14-day Post Application Score ([6]; 1x dose)
some tolerance: tolerance to the herbicide in the field [2]
7: field tolerance score (day not stated) ([7]; PH2545MW_W2032C, 1x dose, some twisting of the leaves, 1-9 score, 1 dead, 9 no visible response) | 7-day Post Application Score [7, 9] | 14-day Post Application Score [7, 9]
5: 7-day Post Application Score ([3]; 1x dose) | 7-day Post Application Score ([5]; 1x dose) | 7-day Post Application Score ([5]; 2x dose) | 7-day Post Application Score ([6]; 1x dose) | 7-day Post Application Score ([6]; 2x dose) | 7-day Post Application Score [7, 10]
2: 7-day Post Application Score (Male Sterile 3_WT; 2x dose) | 7-day Post Application Score (Male Sterile 2_WT; 1x dose) | 7-day Post Application Score (Male Sterile 2_WT; 2x dose) | 7-day Post Application Score (Male Sterile 1_WT; 1x dose) | 7-day Post Application Score (Male Sterile 1_WT; 2x dose)
tolerance: tolerance to the herbicide in the field ([7]; inbred_W2032C plants, 1x or 2x Assure II at 5-6 leaves stage)
1: 14-day Post Application Score ([4]; 1x dose) | 14-day Post Application Score ([4]; 2x dose) | 14-day Post Application Score (Male Sterile 3_WT; 1x dose) | 14-day Post Application Score (Male Sterile 3_WT; 2x dose) | 14-day Post Application Score (Male Sterile 2_WT; 1x dose) | 14-day Post Application Score (Male Sterile 2_WT; 2x dose) | 14-day Post Application Score (Male Sterile 1_WT; 1x dose) | 14-day Post Application Score (Male Sterile 1_WT; 2x dose)
susceptible: response of plants to the herbicide spray (wild-type control plants)
